19 compounds from patent publication US20070135499A1 (Aerie Pharmaceuticals, Inc., priority 2005, published 2007) can be followed below.

One experiment concerns the target T1, hGRK-2 (Homo sapiens, UniProt P25098).
T1 sequence (P25098 1-689): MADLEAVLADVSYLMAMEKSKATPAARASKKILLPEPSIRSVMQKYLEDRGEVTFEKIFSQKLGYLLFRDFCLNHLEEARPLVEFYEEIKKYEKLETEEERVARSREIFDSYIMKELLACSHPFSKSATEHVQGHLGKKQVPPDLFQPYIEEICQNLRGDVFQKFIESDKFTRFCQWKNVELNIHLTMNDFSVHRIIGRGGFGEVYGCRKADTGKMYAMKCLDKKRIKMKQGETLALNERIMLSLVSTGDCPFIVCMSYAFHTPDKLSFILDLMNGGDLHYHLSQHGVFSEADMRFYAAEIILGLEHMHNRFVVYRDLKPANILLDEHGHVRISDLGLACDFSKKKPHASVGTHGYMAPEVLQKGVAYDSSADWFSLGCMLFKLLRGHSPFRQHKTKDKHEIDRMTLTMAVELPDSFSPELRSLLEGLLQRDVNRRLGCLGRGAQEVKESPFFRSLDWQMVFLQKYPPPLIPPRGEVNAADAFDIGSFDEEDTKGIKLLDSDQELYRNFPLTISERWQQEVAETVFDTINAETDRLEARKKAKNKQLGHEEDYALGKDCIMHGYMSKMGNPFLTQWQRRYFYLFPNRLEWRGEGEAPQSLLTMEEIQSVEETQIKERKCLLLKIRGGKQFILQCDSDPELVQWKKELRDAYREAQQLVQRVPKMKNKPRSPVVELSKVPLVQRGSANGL
Description: luciferase-based (Kinase-Glo) biochemical kinase inhibition assay, hGRK-2. The settings on record: luciferase assay, casein substrate, 10 μM ATP; read-out: GRK-2 inhibition, Ki class. Here is the method:
(§1) The inhibition of G-protein-coupled receptor kinases including hGRK-2 was determined for the hydrazide compounds using a biochemical assay. The inhibition of GRK-3, GRK-5 and GRK-6 was also determined using the same assay for some of the hydrazide derivatives.
(§2) The protein kinase inhibition was determined using a biochemical assay utilizing the light emission of a luciferase reaction. The luciferase-based assay operates on the following reaction principles: [drawing 10]
(§3) An inhibitor of GRK-2 will increase in the amount of ATP in solution, as shown. Thus, an inhibitor of GRK-2 will drive the luciferase reaction to the right, resulting in more light emitted. The amount of light emitted is proportional to the inhibition resulting from the GRK-2 inhibitor. The luciferase-based assay was also used to test some of the hydrazides for the inhibition properties towards other kinases.
The test procedure was as follows:
• 50 mM HEPES, pH 7.5 • 10 mM MgCl2 • 100 μM activated sodium orthovanadate • 0.01% CHAPS • 0.1% BSA • 1 mM DTT (added fresh daily) 10× Assay Buffer Stock: • 500 mM HEPES, pH 7.5 • 100 mM MgCl2 • 1 mM activated sodium orthovanadate • 0.1% CHAPS • 1% BSA (leave out for 10× compound dilution buffer) Final Assay Conditions: • 50 μM test compound • 20 μM casein • 10 μM ATP • 50 nM hGRK2 • 4.5% DMSO • 90-120 minute incubation
Stopped by addition of 30 μl 3×-diluted Kinase-Glo reagent containing 0.01% trypan blue. Counted on FUSION plate reader.
Compound Dilution and Transfer
Prepare sufficient buffer containing 40% DMSO to add 20 μl/well to the number of plates being assayed. This buffer should not contain BSA because it will precipitate with addition of 40% DMSO. (EXAMPLE: To make 3000 ml compound dilution buffer: 1200 ml DMSO, 180 ml 10× compound dilution buffer, 1615 ml ultrapure water, 3 ml 1M DTT.).
Using Multidrop, add 20 μl of compound dilution buffer to all wells of the 384-well daughter plate (add 1 μl DMSO to control wells). This will result in a daughter plate which contains 21 μl of ˜500 μM test compound.
Using the PlateTrak, transfer 5 μl of the test compounds to a 384-well, non-binding, white microtiter plate.
Prepare sufficient volume of buffer (with BSA and 1 mM DTT) containing 125 nM GRK2 and 25 μM ATP. (Example: To 219 ml of buffer was added 550 μl 10 mM ATP and 350 μl 79 μM GRK2).
Using Multidrop, add 20 μl of GRK2/ATP mixture to all wells of the microtiter plate.
Prepare sufficient volume of buffer (with BSA and 1 mM DTT) containing 40 μM casein. (EXAMPLE: To 211 ml buffer add 8.8 ml 1 mM casein)
Using Multidrop, add 25 μl to columns 1 through 23 of the microtiter plate. Add 25 μl of complete buffer to column 24 (blanks).
Mix reaction gently by tapping (Multidrop addition of casein does a decent job of mixing), stack plates and incubate at room temperature for between 90 and 120 minutes. Assay progression can be tracked in a separate plate if desired. Target 20-30% ATP consumption. Try to avoid exceeding 40% consumption as kinetics might become non-linear due to substrate (ATP) depletion.
Addition of Kinase-Glo Reagents
The Kinase-Glo reagent can be diluted 3-fold with no loss of data quality in this assay. Additionally, since the library contains many colored compounds which will quench the light emitted from the well resulting in a false negative (kinase inhibitors result in less ATP consumption thus more light emitted), the entire reaction is subject to intentional quench to override this effect. This intentional quench is accomplished by the addition of 0.01% trypan blue to the Kinase-Glo reagents. (EXAMPLE: 100 ml 1× Kinase-Glo reagents (prepared according to product insert), 200 ml assay buffer, 7.5 ml 0.4% trypan blue.
Using Multidrop, add 30 μl to all wells of the assay plate.
Count on FUSION plate reader in luminescence mode.

The next experiment has as its target T2, GRK-3 (Homo sapiens, UniProt P35626).
T2 sequence (P35626 1-688): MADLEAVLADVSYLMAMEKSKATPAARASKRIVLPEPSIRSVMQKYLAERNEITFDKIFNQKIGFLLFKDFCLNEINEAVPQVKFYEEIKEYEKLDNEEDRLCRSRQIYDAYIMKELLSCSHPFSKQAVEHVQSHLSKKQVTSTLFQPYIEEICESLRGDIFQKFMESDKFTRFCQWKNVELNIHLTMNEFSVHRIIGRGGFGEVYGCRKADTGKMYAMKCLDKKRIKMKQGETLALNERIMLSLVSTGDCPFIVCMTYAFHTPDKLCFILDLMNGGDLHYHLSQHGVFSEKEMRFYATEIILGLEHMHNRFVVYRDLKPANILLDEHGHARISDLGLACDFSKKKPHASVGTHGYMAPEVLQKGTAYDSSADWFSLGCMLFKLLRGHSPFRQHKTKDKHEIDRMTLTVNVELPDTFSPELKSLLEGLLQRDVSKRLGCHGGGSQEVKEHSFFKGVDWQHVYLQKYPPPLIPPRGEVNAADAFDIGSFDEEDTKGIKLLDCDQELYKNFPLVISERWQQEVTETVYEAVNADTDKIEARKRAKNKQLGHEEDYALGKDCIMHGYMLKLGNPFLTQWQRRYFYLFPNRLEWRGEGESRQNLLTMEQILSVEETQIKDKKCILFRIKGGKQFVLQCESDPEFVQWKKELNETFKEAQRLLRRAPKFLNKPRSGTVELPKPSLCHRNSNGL
Description: luciferase-based biochemical kinase inhibition assay, GRK-3. The note with it: same luciferase assay; read-out: GRK-3 inhibition, Ki class. The method, then:
as §1, §2, §3

For another experiment, the target named is GRK-5 (Homo sapiens, UniProt P34947). Description: luciferase-based biochemical kinase inhibition assay, GRK-5. The note with it: same luciferase assay; read-out: GRK-5 inhibition, Ki class. Here is the method: The inhibition of G-protein-coupled receptor kinases including hGRK-2 was determined for the hydrazide compounds using a biochemical assay. […] The inhibition of GRK-3, GRK-5 and GRK-6 was also determined using the same assay for some of the hydrazide derivatives.
GRK-5, sequence (P34947 whole entry, species assumed): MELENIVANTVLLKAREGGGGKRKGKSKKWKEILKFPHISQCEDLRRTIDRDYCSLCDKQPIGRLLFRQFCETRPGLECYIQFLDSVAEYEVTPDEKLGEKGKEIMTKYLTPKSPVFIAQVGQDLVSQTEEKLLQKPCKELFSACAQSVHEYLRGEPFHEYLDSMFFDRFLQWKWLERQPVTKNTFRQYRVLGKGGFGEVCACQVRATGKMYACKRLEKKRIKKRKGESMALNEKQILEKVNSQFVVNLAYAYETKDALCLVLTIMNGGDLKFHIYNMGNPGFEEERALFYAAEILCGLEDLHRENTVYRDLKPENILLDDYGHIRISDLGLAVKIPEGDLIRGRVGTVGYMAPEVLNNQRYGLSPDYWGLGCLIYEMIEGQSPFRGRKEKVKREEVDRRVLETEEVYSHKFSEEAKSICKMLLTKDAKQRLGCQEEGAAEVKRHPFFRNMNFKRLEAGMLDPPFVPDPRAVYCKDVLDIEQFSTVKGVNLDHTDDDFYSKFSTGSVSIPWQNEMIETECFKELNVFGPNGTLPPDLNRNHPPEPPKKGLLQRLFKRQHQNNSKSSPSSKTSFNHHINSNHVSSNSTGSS
as §2, §3

In the case of `O=C(CNc1cccc(Cl)c1)N/N=C/c1c(Cl)cncc1Cl` [Example 1, (3-Chloro-phenylamino)-acetic acid [1-(3,5-dichloro-pyridin-4-yl)-meth-(E)-ylidene]-hydrazide], the Ki on hGRK-2, at GRK-3 and at GRK-5 was 1000 to 10000 nM throughout.

In the case of `O=C(CNc1cccc(F)c1)N/N=C/c1c(Cl)cncc1Cl` [Example 4, (3-Fluoro-phenylamino)-acetic acid [1-(3,5-dichloro-pyridin-4-yl)-meth-(E)-ylidene]-hydrazide], the inhibition constant (Ki) was in the range of 100 to 1000 nM on hGRK-2, 1000 to 10000 nM on GRK-3 and 1000 to 10000 nM at GRK-5.

Take `CSc1cccc(NCC(=O)N/N=C/c2c(Cl)cncc2Cl)c1` [Example 10, (3-Methylsulfanyl-phenylamino)-acetic acid [1-(3,5-dichloro-pyridin-4-yl)-meth-(E)-ylidene]-hydrazide]: the Ki at hGRK-2 lay within 100 to 1000 nM; at GRK-3, 100 to 1000 nM; on GRK-5, 1000 to 10000 nM.

For the compound `O=C(CNc1cccc(-n2cncn2)c1)N/N=C/c1ccncc1` [Example 78, (3-[1,2,4]Triazol-1-yl-phenylamino)-acetic acid [1-pyridin-4-yl-meth-(E)-ylidene]-hydrazide], the Ki on hGRK-2 is above 10000 nM.

For `O=C(CNc1cccc(C(=O)Nc2cccnc2)c1)N/N=C/c1ccncc1` [Example 80, N-Pyridin-3-yl-3-{[1-pyridin-4-yl-meth-(E)-ylidene-hydrazinocarbonylmethyl]-amino}-benzamide], the inhibitory constant (Ki) on hGRK-2 was 100 to 1000 nM.

Take `O=C(CNc1cccc(-n2cccn2)c1)N/N=C/c1ccncc1` [Example 82, (3-Pyrazol-1-yl-phenylamino)-acetic acid [1-pyridin-4-yl-meth-(E)-ylidene]-hydrazide]: at hGRK-2, the inhibition constant Ki is above 10000 nM.

As to `O=C(CNc1cccc(Oc2ccc(F)c(F)c2)c1)N/N=C/c1ccncc1` [Example 83, [3-(3,4-Difluoro-phenoxy)-phenylamino]-acetic acid [1-pyridin-4-yl-meth-(E)-ylidene]-hydrazide], the Ki on hGRK-2 lay within 100 to 1000 nM.

With `O=C(CNc1cccc(Oc2ccc(F)cc2F)c1)N/N=C/c1ccncc1` [Example 84, [3-(2,4-Difluoro-phenoxy)-phenylamino]-acetic acid [1-pyridin-4-yl-meth-(E)-ylidene]-hydrazide], the Ki on hGRK-2 was in the range of 10 to 100 nM.

`O=C(CNc1cccc(Oc2cccnc2)c1)N/N=C/c1ccncc1` [Example 86, [3-(Pyridin-3-yloxy)-phenylamino]-acetic acid [1-pyridin-4-yl-meth-(E)-ylidene]-hydrazide]: at hGRK-2, the Ki lay within 100 to 1000 nM.

On to `O=C(CNc1cccc(Cl)c1)N/N=C/c1ccnc2ccccc12` [Example 91, (3-Chloro-phenylamino)-acetic acid [1-quinolin-4-yl-meth-(E)-ylidene]-hydrazide], for which, on hGRK-2, the inhibition constant Ki was above 10000 nM.

With `Cn1cncc1/C=N/NC(=O)CNc1cccc(Cl)c1` [Example 92, (3-Chloro-phenylamino)-acetic acid [1-(3-methyl-3H-imidazol-4-yl)-meth-(E)-ylidene]-hydrazide], at hGRK-2, the inhibition constant (Ki) was above 10000 nM.

On to `O=C(CNc1cccc(Cl)c1)N/N=C/c1ccsc1` [Example 93, (3-Chloro-phenylamino)-acetic acid [1-thiophen-3-yl-meth-(E)-ylidene]-hydrazide], for which, on hGRK-2, the inhibition constant (Ki) is above 10000 nM.

Regarding `O=C(CNc1cccc(Cl)c1)N/N=C/c1ccoc1` [Example 94, (3-Chloro-phenylamino)-acetic acid [1-furan-3-yl-meth-(E)-ylidene]-hydrazide], the Ki at hGRK-2 lay in the range of 1000 to 10000 nM.

Regarding `O=C(CNc1cccc(Cl)c1)NNCc1ccncc1` [Example 95, (3-Chloro-phenylamino)-acetic acid N′-pyridin-4-ylmethyl-hydrazide], the Ki on hGRK-2 was above 10000 nM.

Take `O=C(CNc1cccc(C(=O)Nc2ccccc2)c1)N/N=C/c1ccncc1` [Example 96, N-Phenyl-3-{[1-pyridin-4-yl-meth-(E)-ylidene-hydrazinocarbonylmethyl]-amino}-benzamide]: the results for the inhibition constant (Ki) at hGRK-2 and on GRK-3 were 100 to 1000 nM and 10 to 100 nM, respectively.

As for `CC(Nc1cccc(Oc2ccccc2)c1)C(=O)N/N=C/c1c(Cl)cncc1Cl` (centres unmarked) [Example 98, 2-(3-Phenoxy-phenylamino)-propionic acid [1-(3,5-dichloro-pyridin-4-yl)-meth-(E)-ylidene]-hydrazide], the Ki at hGRK-2 is above 10000 nM.

Take `CC(Nc1cccc(Oc2ccccc2)c1)C(=O)N/N=C/c1ccncc1` (centres unmarked) [Example 99, 2-(3-phenoxy-phenylamino)-propionic acid [1-pyridin-4-yl-meth-(E)-ylidene]-hydrazide]: the Ki on hGRK-2 was above 10000 nM.

Turning to `COc1cc(NCC(=O)N/N=C/c2ccncc2)cc(OC)c1` [Example 100, (3,5-Dimethoxy-phenylamino)-acetic acid [1-pyridin-4-yl-meth-(E)-ylidene]-hydrazide], at hGRK-2, the inhibition constant (Ki) was above 10000 nM.

In the case of “Dimethyl-carbamic acid 3-{[1-pyridin-4-yl-meth-(E)-ylidene-hydrazinocarbonyl-methyl]-amino}-phenyl ester [Example 101]”, the inhibition constant (Ki) on hGRK-2 was above 10000 nM.
